Data as given in PubChem BioAssay (NCI).
“And” between values parts separate entries of the source, which are not always exact repeats. Equal entries are not always repeated.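 Step 1: Grow cells in 96-well plates. Step 2: Expose to compound for 48 hours at 5 concentrations. Step 3: Interpolate endpoints linearly; if unreached, use highest concentration. Here, GI50 denotes the concentration required for 50% inhibition of growth. The concentration for full growth arrest is given as TGI.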

Tests used:
Assay in all cases: NCI tumour cell line growth inhibition, 48 h
COLO 205 colon = test system: COLO 205 colon
DU-145 prostate = test system: DU-145 prostate
EKVX NSCLC = test system: EKVX NSCLC
HS 578T breast = test system: HS 578T breast
IGROV1 ovarian = test system: IGROV1 ovarian
MDA-MB-435 = test system: MDA-MB-435
NCI-H460 lung = test system: NCI-H460 lung
OVCAR-8 ovarian = test system: OVCAR-8 ovarian
SK-MEL-2 melanoma = test system: SK-MEL-2 melanoma
TK-10 renal = test system: TK-10 renal

CCc1c(C)c2cc(-n3c(-c4ccc(OC)cc4)csc3=N)c(O)c(C)c2oc1=O
GI50 (COLO 205 colon): 1.94 µM
TGI (COLO 205 colon): 4.88 µM
GI50 (DU-145 prostate): 3 µM
TGI (DU-145 prostate): 12.3 µM
GI50 (EKVX NSCLC): 1.24 µM
TGI (EKVX NSCLC): 11.1 µM
GI50 (HS 578T breast): 2.1 µM
TGI (HS 578T breast): > 100 µM
GI50 (IGROV1 ovarian): 1.08 µM
TGI (IGROV1 ovarian): 5.25 µM
GI50 (MDA-MB-435): 0.355 µM
TGI (MDA-MB-435): 4.16 µM
GI50 (NCI-H460 lung): 2.25 µM
TGI (NCI-H460 lung): 10.6 µM
GI50 (OVCAR-8 ovarian): 2.24 µM
TGI (OVCAR-8 ovarian): 8.28 µM
GI50 (SK-MEL-2 melanoma): 1.66 µM
TGI (SK-MEL-2 melanoma): 5.84 µM
GI50 (TK-10 renal): 4.36 µM
TGI (TK-10 renal): 8.35 µM

CCOCCOCCOCCOCCOCCOCCOCCOCCOCCO (tested in a mixture with another compound)
GI50 (COLO 205 colon): 1.28 µM
TGI (COLO 205 colon): 4.23 µM
GI50 (DU-145 prostate): 2.6 µM
TGI (DU-145 prostate): 15.2 µM
GI50 (EKVX NSCLC): 1.26 µM
TGI (EKVX NSCLC): 9.62 µM
GI50 (HS 578T breast): 1.81 µM
TGI (HS 578T breast): 9.59 µM
GI50 (IGROV1 ovarian): 3.19 µM
TGI (IGROV1 ovarian): 15.8 µM
GI50 (MDA-MB-435): 1.45 µM
GI50 (NCI-H460 lung): 1.2 µM
TGI (NCI-H460 lung): 6.82 µM
GI50 (OVCAR-8 ovarian): 0.871 µM
TGI (OVCAR-8 ovarian): 4.36 µM
GI50 (SK-MEL-2 melanoma): 1.2 µM
TGI (SK-MEL-2 melanoma): 3.81 µM
GI50 (TK-10 renal): 1.53 µM
TGI (TK-10 renal): 12.2 µM

CC1(C)C(=O)/C=C\C(=O)C(C)(C)C(=O)/C=C\C(=O)C(C)(C)C2=CC=C(O2)C(C)(C)C(=O)/C=C\C1=O
TGI (COLO 205 colon): 6.45 µM
TGI (DU-145 prostate): 32.1 µM
TGI (EKVX NSCLC): 11.6 µM
TGI (HS 578T breast): 50 µM
TGI (IGROV1 ovarian): 24.9 µM
TGI (MDA-MB-435): 29.3 µM
TGI (NCI-H460 lung): 46.8 µM
TGI (OVCAR-8 ovarian): 11.6 µM
TGI (SK-MEL-2 melanoma): 25.5 µM
TGI (TK-10 renal): 13.4 µM

COc1ccc2c(c1)nnc1c3cccnc3[nH]c21
GI50 (COLO 205 colon): 1.13 µM and 0.735 µM
TGI (COLO 205 colon): 4.87 µM and 2.31 µM
GI50 (DU-145 prostate): 1.88 µM and 1.04 µM
TGI (DU-145 prostate): 12.9 µM and 4.46 µM
GI50 (EKVX NSCLC): 2.82 µM and 6.62 µM
TGI (EKVX NSCLC): 50 µM and > 100 µM
GI50 (HS 578T breast): 3.47 µM and 4.89 µM
TGI (HS 578T breast): 25.5 µM and 81.2 µM
GI50 (IGROV1 ovarian): 0.31 µM and 0.55 µM
GI50 (MDA-MB-435): 1.44 µM and 1.52 µM
TGI (MDA-MB-435): 9.43 µM and 12.3 µM
GI50 (NCI-H460 lung): 1.93 µM and 1.28 µM
TGI (NCI-H460 lung): 9.03 µM and 3.79 µM
GI50 (OVCAR-8 ovarian): 0.619 µM and 0.376 µM
GI50 (SK-MEL-2 melanoma): 1.96 µM and 3.6 µM
GI50 (TK-10 renal): 4.52 µM
TGI (TK-10 renal): 22.6 µM

CSc1nc(SC)c2c(C)cn(COCCOC(=O)c3ccccc3)c2n1
TGI (COLO 205 colon): > 100 µM
TGI (DU-145 prostate): > 100 µM
TGI (EKVX NSCLC): > 100 µM
TGI (HS 578T breast): > 100 µM
TGI (IGROV1 ovarian): > 100 µM
TGI (MDA-MB-435): > 100 µM
TGI (NCI-H460 lung): > 100 µM
TGI (OVCAR-8 ovarian): > 100 µM
TGI (SK-MEL-2 melanoma): > 100 µM
TGI (TK-10 renal): > 100 µM

N=C(CC(=O)Nc1ccccn1)c1ccccc1
TGI (COLO 205 colon): > 100 µM
TGI (DU-145 prostate): > 100 µM
TGI (EKVX NSCLC): > 100 µM
TGI (HS 578T breast): > 100 µM
TGI (IGROV1 ovarian): > 100 µM
TGI (MDA-MB-435): > 100 µM
TGI (NCI-H460 lung): > 100 µM
TGI (OVCAR-8 ovarian): > 100 µM
TGI (SK-MEL-2 melanoma): > 100 µM
TGI (TK-10 renal): > 100 µM

NS(=O)(=O)c1ccc(N=Nc2c[nH]c(=O)c(O)c2)cc1
TGI (COLO 205 colon): > 100 µM
TGI (DU-145 prostate): > 100 µM
TGI (EKVX NSCLC): > 100 µM
TGI (HS 578T breast): > 100 µM
TGI (IGROV1 ovarian): > 100 µM
TGI (MDA-MB-435): > 100 µM
TGI (NCI-H460 lung): > 100 µM
TGI (OVCAR-8 ovarian): > 100 µM
TGI (SK-MEL-2 melanoma): > 100 µM
TGI (TK-10 renal): > 100 µM

CN(CCCCCl)P(=O)(OCc1ccc([N+](=O)[O-])o1)OCC1OC(n2cc([N+](=O)[O-])c(=O)[nH]c2=O)CC1O (stereo unspecified)
GI50 (COLO 205 colon): 44 µM
TGI (COLO 205 colon): > 100 µM
GI50 (DU-145 prostate): > 100 µM
TGI (DU-145 prostate): > 100 µM
GI50 (EKVX NSCLC): > 100 µM
TGI (EKVX NSCLC): > 100 µM
GI50 (HS 578T breast): > 100 µM
TGI (HS 578T breast): > 100 µM
GI50 (IGROV1 ovarian): > 100 µM
TGI (IGROV1 ovarian): > 100 µM
GI50 (MDA-MB-435): > 100 µM
TGI (MDA-MB-435): > 100 µM
GI50 (NCI-H460 lung): 3.01 µM
TGI (NCI-H460 lung): > 100 µM
GI50 (OVCAR-8 ovarian): 41.6 µM
TGI (OVCAR-8 ovarian): > 100 µM
GI50 (SK-MEL-2 melanoma): > 100 µM
TGI (SK-MEL-2 melanoma): > 100 µM
GI50 (TK-10 renal): > 100 µM
TGI (TK-10 renal): > 100 µM

COc1ccc2c(c1)C(=O)c1c-2n(CCCN(C)C)c(=O)c2cc([N+](=O)[O-])ccc12
GI50 (COLO 205 colon): 0.0483 µM
TGI (COLO 205 colon): 12.9 µM
GI50 (DU-145 prostate): < 0.01 µM
TGI (DU-145 prostate): 0.0319 µM
GI50 (EKVX NSCLC): 0.181 µM
TGI (EKVX NSCLC): 16.4 µM
GI50 (HS 578T breast): 3.04 µM
TGI (HS 578T breast): 21.3 µM
GI50 (IGROV1 ovarian): < 0.01 µM
TGI (IGROV1 ovarian): 13.6 µM
GI50 (MDA-MB-435): < 0.01 µM
TGI (MDA-MB-435): 1.32 µM
GI50 (NCI-H460 lung): < 0.01 µM
TGI (NCI-H460 lung): 0.234 µM
GI50 (OVCAR-8 ovarian): < 0.011 µM
TGI (OVCAR-8 ovarian): 3.75 µM
GI50 (SK-MEL-2 melanoma): 0.545 µM
TGI (SK-MEL-2 melanoma): 7.17 µM
GI50 (TK-10 renal): 0.604 µM
TGI (TK-10 renal): 5.38 µM

O=C(CI)Nc1ccc(Br)cc1
GI50 (COLO 205 colon): 1.85 µM
TGI (COLO 205 colon): 3.7 µM
GI50 (DU-145 prostate): 1.77 µM
TGI (DU-145 prostate): 3.18 µM
GI50 (EKVX NSCLC): 2.25 µM
TGI (EKVX NSCLC): 5.85 µM
GI50 (HS 578T breast): 5.05 µM
TGI (HS 578T breast): > 100 µM
GI50 (IGROV1 ovarian): 2.35 µM
TGI (IGROV1 ovarian): 4.88 µM
GI50 (MDA-MB-435): 2.04 µM
TGI (MDA-MB-435): 4.7 µM
GI50 (NCI-H460 lung): 12.4 µM
TGI (NCI-H460 lung): 45.8 µM
GI50 (OVCAR-8 ovarian): 2.46 µM
TGI (OVCAR-8 ovarian): 5.95 µM
GI50 (SK-MEL-2 melanoma): 2.9 µM
TGI (SK-MEL-2 melanoma): 8.03 µM
GI50 (TK-10 renal): 1.92 µM
TGI (TK-10 renal): 3.63 µM
